pIC50: −log10 of the molar value.
Columns and labels:
Sprague-Dawley rats [1] = assay: Reversal of Phencyclidine (PCP)-Induced Hyperlocomotor Activity in Rats; assay type: in vivo; settings: Rattus norvegicus, p.o., overnight fasted, 4 hours prior to 5 mg/kg PCP
Description: Administration of NMDA receptor antagonists, such as ketamine or phencyclidine (PCP), produces psychotomimetic-like effects in humans that are similar to those symptoms observed in patients with schizophrenia.
Motor activity is monitored by placing individual male, Sprague-Dawley (Harlan, Indianapolis, Ind.) rats in transparent, plastic shoe-box cages of the dimensions 45×25×20 cm, with 1 cm depth of wood chips as bedding, and a metal grill on top of the cage. Motor monitors (Kinder Scientific) consist of a rectangular rack of 12 photobeams arranged in an 8×4 formation, (or a high density grouping of 22 in a 15×7 pattern) at a height of 5 cm, with a second rack (for measuring rearing behaviors) at a height of 15 cm. The shoe box cage is placed inside of these racks, with the racks on a 3 foot high tabletop in an isolated room. A compound of the present invention is dosed (intraperitoneal route (i.p.), non-prodrug) within a range of 0.3-10 mg/kg, 30 minutes prior to a 5 mg/kg challenge dose of phencyclidine (PCP). A compound of the present invention is dosed (oral route, prodrug) within a range of 0.3-30 mg/kg, in overnight fasted rats, 4 hours prior to a 5 mg/kg challenge dose of PCP. On the test day, rats are placed in the test cage and allowed to acclimate for 30 minutes prior to PCP challenge; rats are monitored for an additional 60 minutes following PCP administration.
Data analysis and ED50 calculations are conducted using GraphPad Prism (San Diego, Calif. USA). Power analyses have determined that 8-10 rats per group are needed to have appropriate statistical power for detecting treatment differences (power=0.8). A one-way analysis of variance (ANOVA) with a post-hoc Dunnett's multiple comparison test is conducted on the total 60 minute locomotor activity. ED50 calculations are performed using non-linear regression curve fitting on percent reversal transformed data for each dose.

[2] = 1 h, 10 µM, pH 7.4
Procedure: Frozen human duodenum intestinal homogenates (1:2 tissue:buffer ratio using 100 mM Tris Phosphate buffer, pH 7.4) are obtained from Celsius In Vitro Technologies (Baltimore, Md.) that were both phenylmethylsulphonylfluoride (PMSF) and EDTA free.
Each lot of human duodenum is obtained from a single donor and the intestine is scraped and the sections are frozen separate. All original tissue collections are performed at 4° C. and immediately frozen at −70° C. Human intestinal homogenates are thawed and diluted to a final protein concentration of 0.5 mg/mL in 100 mM PBS buffer, pH 7.4 immediately prior to the incubations.
Incubations are conducted in 96-well plates and all prodrug compounds are run in duplicate on each day. Stock prodrug compound solutions are prepared in water at a concentration of 1 mM. A 200 μL aliquot of 0.5 mg/mL intestinal homogenate and 196 μL of 100 mM PBS buffer are placed in a 96-well plate in a 37° C. water bath. Using a 96-well pipettor, 4 μL of the 1 mM prodrug compound solution is transferred into the homogenate. Immediately after addition of the prodrug compound (time zero) and after 1 hour incubation, 50 μL samples of the incubation mixture are removed using an automated disposable simultaneous 96 well pipettor and added directly to 200 μL of methanol quench solution containing 100 ng/mL of Internal Standard. The samples are then centrifuged at 3500 rpm for 5 minutes at 10° C. The supernatant (200 μL) is transferred to a final 96 well PCR plate and sealed for analysis by LC/MS/MS.
Concentrations of hydrolyzed compounds of the present invention in the incubation mixtures are determined using LC/MS/MS detection on a Sciex API 4000 quadrapole mass spectrometer with Analyst version 1.4.2, TurboIonSpray, positive ionization, and Selected Reaction Monitoring (SRM). A Waters Atlantis® T3 (20×2.1 mm, 5 μM) HPLC column is used at ambient temperature with a flow rate of 1.0 mL/min and a mobile phase gradient from 0.1% mobile phase A to 99% mobile phase A. Mobile phase A is 1000:5 water:heptafluorobuteric acid and mobile phase B is 1:1 methanol:glacial acetic acid.
Concentrations of hydrolyzed compounds of the present invention in the intestinal incubation mixtures are determined from standard curves prepared by replicate two-fold dilution starting at 10 μM in 100 mM PBS pH 7.4 and subsequently quenched with methanol-internal standard solution identical to the samples. Averages and standard deviations are calculated using Microsoft® Office Excel® 2007. Amount of hydrolysis is determined as a molar percentage of compound formed relative to prodrug compound concentration added. […] Final values are then normalized relative to the formation of Internal Compound Drug A.

hPepT1 = target: T1, hPepT1 (Homo sapiens, UniProt P46059); assay: In Vitro PepT1 GlySar Inhibition Screen and IC50 Determination; assay type: cell-based; settings: for inhibition at 5000 µM: 5 mM, pH 6.0, PepT1 transiently transfected HeLa cells, read-out: hPepT1 [3H]Gly-Sar uptake inhibition at 5 mM
T1 construct: expressed in transfected cells; host or cells: HeLa cells (ATCC), transient transfection with FuGene6
T1 sequence (P46059 1-708): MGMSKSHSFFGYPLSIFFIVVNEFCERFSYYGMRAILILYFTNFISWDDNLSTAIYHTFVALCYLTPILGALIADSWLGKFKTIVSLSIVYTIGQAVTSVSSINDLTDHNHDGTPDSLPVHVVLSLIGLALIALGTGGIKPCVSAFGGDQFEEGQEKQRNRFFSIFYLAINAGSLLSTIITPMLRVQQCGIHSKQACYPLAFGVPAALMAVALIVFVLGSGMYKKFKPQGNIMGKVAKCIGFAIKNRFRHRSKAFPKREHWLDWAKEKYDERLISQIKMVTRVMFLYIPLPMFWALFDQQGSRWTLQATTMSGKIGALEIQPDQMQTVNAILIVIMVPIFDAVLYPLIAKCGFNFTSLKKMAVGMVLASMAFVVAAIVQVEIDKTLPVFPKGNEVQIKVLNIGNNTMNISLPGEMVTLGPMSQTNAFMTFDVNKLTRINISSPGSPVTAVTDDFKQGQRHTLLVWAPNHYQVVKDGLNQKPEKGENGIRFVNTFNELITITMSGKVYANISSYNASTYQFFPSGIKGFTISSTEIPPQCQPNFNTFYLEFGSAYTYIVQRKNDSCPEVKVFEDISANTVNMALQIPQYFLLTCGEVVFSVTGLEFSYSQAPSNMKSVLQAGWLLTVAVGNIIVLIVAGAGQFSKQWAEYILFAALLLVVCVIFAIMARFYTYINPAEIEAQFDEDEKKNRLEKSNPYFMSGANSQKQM
Procedure: PepT1 assays are established to examine the ability of the amino acid prodrug compounds to interact with the intestinal absorption transporter PepT1.
HeLa cells, […], (American Type Culture Collection) are grown in Hyclone Medium (Invitrogen, Cat# SH30243) containing 10% fetal bovine serum (FBS), 0.1 mM non essential amino acids (NEAA), and 100 units/mL penicillin with 100 μg/mL streptomycin at 37° C. in a 5% CO2 humidified atmosphere. The cell line is used for up to 40 passages and then discarded. Frozen cells in 1 ml vials are thawed in water bath for 1-2 minutes and added to 5 mL of cell medium at 37° C. Each of the T-flasks is provided with 8.5 mL of the fresh medium and 1.5 mL of the cell stock. Cells are passaged twice during a week. This is achieved by rinsing the flasks with 10 mL of phosphate buffered saline-ethylene diaminetetra acetic acid (PBS-EDTA), adding 2 mL of trypsin for 2-5 minutes, to detach the cells, and adding 8 mL of fresh medium to inhibit further activity of trypsin. Each new flask receives a combination of 8.5 mL of fresh medium and 1.5 mL of cell stock, in order to obtain 1:6 cell dilution. Cells are incubated at 37° C., until ready for the uptake study.
Cells that are 70-80% confluent in the T-flasks are plated 1 day prior to the transfection procedure. The flask with the cell stock is treated with PBS-EDTA and trypsin to detach the cells, and transfection medium is used from this point. Transfection medium consists of Dulbecco's Modified Eagle Medium (DMEM)+NEAA. To each well, 0.5 mL of the cell mixture is added (1.3×10^5 is the desired cell concentration) and the cells are incubated at 37° C. overnight. Twenty four hours before the assay, cells are transfected with PEPT1. Transfection mixture is prepared by mixing 600 μL of serum free transfection medium, 18 μL of FuGene6 (Roche Diagnostics), and 11 μg of the PepT1 DNA. The transfection reagent-DNA complex is incubated for 20 minutes and 24 μL of the reagent-DNA complex is added to each well.
J. Pharm. Exper Ther. 310:437-445). […] Uptake media consists of 140 mM NaCl, 5.4 mM KCl, 1.8 mM CaCl2, 0.8 mM MgSO4, 5 mM Glucose, 25 mM tris(hydroxymethyl)aminomethane buffer (TRIS). The solution is then brought to pH 6.0 using 2-(N-morpholino)ethanesulfonic acid. The incubation volume is 500 μL and is performed at room temperature for 3 minutes. To stop the uptake at the conclusion of the incubation time, the uptake media is aspirated off of the cell monolayer and 500 μL of ice cold PBS added to the well. The cells are washed 3 times with 500 μL of room temperature PBS without Ca^+2 and Mg^+2. The cells are then lysed with 300 μL of 1% Triton X100 H2O solution. […] A no inhibitor control is established and the percent inhibition of each prodrug is calculated with respect to this control.
The incubation and sampling procedures are exactly the same as the PepT1 screen described above. […]

Sprague-Dawley rats [3] = assay: Forced Swim Test in rats; assay type: in vivo, rat; settings: 30 mg/kg
Procedure: (§1) In this assay, mechanisms with purported antidepressant-like activity decrease immobility in a brief inescapable forced swim episode.
The forced-swim test is conducted with both mice (male, NIH-Swiss mice, 20-25 g, Harlan Sprague-Dawley, Indianapolis, Ind.) and rats (male, Sprague-Dawley rats, 250-350 g, Harlan Sprague-Dawley, Indianapolis, Ind.). Mice are placed in clear plastic cylinders (diameter 10 cm; height: 25 cm) filled to 6 cm with 22-25° C. water for six min. The duration of immobility is recorded during the last 4 min of a six-minute trial. Rats are treated similarly, albeit in clear plastic cylinders of larger dimensions (diameter: 18 cm; height: 40 cm) filled with water (22-25° C.) to a depth of 16 cm for 15 min. Additionally, mice receive a single forced swim exposure; rats receive two, 5-min sessions separated by 24 hours (data is recorded only on Day 2). The compound of Example 1 is tested in mice using intraperitoneal dosing (1, 3, or 10 mg/kg), 60 min prior to testing. […] Example 2 is administered 5 min following the first forced swim exposure and 120 min prior to the test session on Day 2. Imipramine is used as a positive control for these studies. Compounds are formulated in a water vehicle, with minimal NaOH being added to Example 1 and Example 2. Compounds are in a clear solution. The amount of time spent immobile (defined as movements only necessary to keep the subject's head above water) is the dependent measure and recorded by an observer blinded to the drug treatment of the subjects. Data are analyzed by post-hoc Dunnett's test with alpha level set at 0.05. The mouse version of the forced swim test is most commonly used. An ED60 value (60% of the amount of immobility relative to vehicle controls) is calculated to estimate potency of the test compounds.

NIH-Swiss mice = assay: Forced Swim Test in mice; assay type: in vivo, mouse; settings: positive control over multiple studies
Procedure: as §1
The forced-swim test is conducted with both mice (male, NIH-Swiss mice, 20-25 g, Harlan Sprague-Dawley, Indianapolis, Ind.) and rats (male, Sprague-Dawley rats, 250-350 g, Harlan Sprague-Dawley, Indianapolis, Ind.). Mice are placed in clear plastic cylinders (diameter 10 cm; height: 25 cm) filled to 6 cm with 22-25° C. water for six min. The duration of immobility is recorded during the last 4 min of a six-minute trial. Rats are treated similarly, albeit in clear plastic cylinders of larger dimensions (diameter: 18 cm; height: 40 cm) filled with water (22-25° C.) to a depth of 16 cm for 15 min. Additionally, mice receive a single forced swim exposure; rats receive two, 5-min sessions separated by 24 hours (data is recorded only on Day 2). […] Imipramine is used as a positive control for these studies. […] Compounds are in a clear solution. The amount of time spent immobile (defined as movements only necessary to keep the subject's head above water) is the dependent measure and recorded by an observer blinded to the drug treatment of the subjects. Data are analyzed by post-hoc Dunnett's test with alpha level set at 0.05. The mouse version of the forced swim test is most commonly used.

Row | human intestinal hydrolysis relative to Internal Prodrug Compound A [2] [%] | inhibition at 5000 µM (hPepT1) [%] | Structure (SMILES) | further results
1 | 53 | 51 | CSCC[C@H](N)C(=O)N[C@@]1(C(=O)O)C[C@@H](Sc2nnc[nH]2)[C@H]2[C@H](C(=O)O)[C@H]21.Cl [Example 3, (1R,2S,4R,5R,6R)-2-[[(2S)-2-Amino-4-methylsulfanyl-butanoyl]amino]-4-(4H-1,2,4-triazol-3-ylsulfanyl)bicyclo[3.1.0]hexane-2,6-dicarboxylic acid hydrochloride] | ED50 (Sprague-Dawley rats [1]): 5.46 mg/kg; pIC50 (hPepT1; 0.0625 to 25 mM, PepT1 transfected HeLa cells, read-out: hPepT1 [3H]Gly-Sar uptake inhibition IC50): 2.27
2 | 45 | 32 | CC(C)C[C@H](N)C(=O)N[C@@]1(C(=O)O)C[C@@H](Sc2nnc[nH]2)[C@H]2[C@H](C(=O)O)[C@H]21.Cl [Example 4, (1R,2S,4R,5R,6R)-2-[[(2S)-2-Amino-4-methyl-pentanoyl]amino]-4-(4H-1,2,4-triazol-3-ylsulfanyl)bicyclo[3.1.0]hexane-2,6-dicarboxylic acid hydrochloride] | 
3 | 35 | 44 | Cl.NCC(=O)N[C@@]1(C(=O)O)C[C@@H](Sc2nnc[nH]2)[C@H]2[C@H](C(=O)O)[C@H]21 [Example 5, (1R,2S,4R,5R,6R)-2-[(2-Aminoacetyl)amino]-4-(4H-1,2,4-triazol-3-ylsulfanyl)bicyclo[3.1.0]hexane-2,6-dicarboxylic acid hydrochloride] | 
4 | 2 |  | N[C@@]1(C(=O)OCc2ccccc2)C[C@@H](Sc2nnc[nH]2)[C@H]2[C@H](C(=O)OCc3ccccc3)[C@H]21 [Example 6, Dibenzyl (1R,2S,4R,5R,6R)-2-amino-4-(4H-1,2,4-triazol-3-ylsulfanyl)bicyclo[3.1.0]hexane-2,6-dicarboxylate] | 
5 |  |  | CN(C)CCCN1c2ccccc2CCc2ccccc21 [imipramine, reference compound] | immobility as % of vehicle controls (Sprague-Dawley rats [3]): 70%; ED60 (NIH-Swiss mice): 8.6 ± 1.2 mg/kg; effect, % of vehicle immobility levels (NIH-Swiss mice): 39±1.2%

Source: patent publication US8318184B2, “MGLU2 agonists” (Eli Lilly and Company, priority 2009, dated 2012)
